Test [1] has as its target T1, Aurora kinase C (Homo sapiens) (UniProt Q9UQB9).
T1 sequence (whole entry): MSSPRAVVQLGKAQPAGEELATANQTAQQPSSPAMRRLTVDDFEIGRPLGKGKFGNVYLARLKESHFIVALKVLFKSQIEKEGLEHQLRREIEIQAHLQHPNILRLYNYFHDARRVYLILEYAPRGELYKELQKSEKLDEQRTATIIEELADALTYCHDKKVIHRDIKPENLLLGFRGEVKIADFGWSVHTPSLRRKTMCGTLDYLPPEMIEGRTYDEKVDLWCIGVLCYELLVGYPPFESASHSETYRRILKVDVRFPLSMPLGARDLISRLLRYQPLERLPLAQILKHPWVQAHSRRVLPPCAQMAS
The test is described as follows: Selectivity interaction (ProQinase) EUB0000171b AURKC.

In test [2] the target is Mitogen-activated protein kinase 11 (Homo sapiens) (UniProt Q15759). Briefly: Selectivity interaction (KinomeScan (DiscoverX)) EUB0001079a MAPK11. To be noted: at 1 µM.
Test [3] addresses T1, Aurora kinase C (Homo sapiens). The test is described as follows: Selectivity interaction (KinomeScan (DiscoverX)) EUB0000655a AURKC. The note with it: at 10 µM.
In test [4] the target is T2, Histone-lysine N-methyltransferase SUV39H1 (Homo sapiens) (UniProt O43463).
T2 sequence (whole entry): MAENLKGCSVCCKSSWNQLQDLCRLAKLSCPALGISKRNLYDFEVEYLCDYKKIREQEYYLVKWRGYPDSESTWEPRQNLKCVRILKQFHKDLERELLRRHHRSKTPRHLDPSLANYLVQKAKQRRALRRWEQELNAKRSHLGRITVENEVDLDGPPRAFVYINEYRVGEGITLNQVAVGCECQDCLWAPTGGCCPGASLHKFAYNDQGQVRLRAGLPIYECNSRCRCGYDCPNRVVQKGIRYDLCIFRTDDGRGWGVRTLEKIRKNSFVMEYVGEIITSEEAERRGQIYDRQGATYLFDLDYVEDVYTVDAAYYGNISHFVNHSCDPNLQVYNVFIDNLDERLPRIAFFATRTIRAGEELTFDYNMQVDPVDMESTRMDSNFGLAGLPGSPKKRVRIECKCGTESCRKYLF
Briefly: Selectivity interaction (Methyltransferase screen (radiometric assays, panel of 8 PRMTs, 21 protein lysine methyltransferases, 3 DNA methyltransferases, and one RNA methyltransferase)) EUB0000271b SUV39H1.

Test [5] concerns the target CDK7/Cyclin H/MNAT1 (Homo sapiens) (UniProt P51946+P50613+P51948). The test is described as follows: Selectivity interaction (Adapta Assay) EUB0001632a CDK7. It is filed as protein-complex assay. To be noted: at 10 µM.
For another test, the target named is SRSF protein kinase 1 (Homo sapiens, UniProt Q96SB4). Briefly: Selectivity interaction (ActivX KiNativ screen (kinase selectivity in THP-1 cell lysates)) EUB0000639a SRPK1. To be noted: lysate, at 0.01 µM. It is filed as subcellular.
Test [6] addresses Calcium/calmodulin-dependent protein kinase type II subunit beta (Homo sapiens) (UniProt Q13554). Briefly: Selectivity interaction (KinomeScan (DiscoverX)) EUB0000229b CAMK2B. The note with it: at 10 µM.
For test [7], the target named is T3, Serine/threonine-protein kinase BRSK1 (Homo sapiens) (UniProt Q8TDC3).
T3 sequence (whole entry): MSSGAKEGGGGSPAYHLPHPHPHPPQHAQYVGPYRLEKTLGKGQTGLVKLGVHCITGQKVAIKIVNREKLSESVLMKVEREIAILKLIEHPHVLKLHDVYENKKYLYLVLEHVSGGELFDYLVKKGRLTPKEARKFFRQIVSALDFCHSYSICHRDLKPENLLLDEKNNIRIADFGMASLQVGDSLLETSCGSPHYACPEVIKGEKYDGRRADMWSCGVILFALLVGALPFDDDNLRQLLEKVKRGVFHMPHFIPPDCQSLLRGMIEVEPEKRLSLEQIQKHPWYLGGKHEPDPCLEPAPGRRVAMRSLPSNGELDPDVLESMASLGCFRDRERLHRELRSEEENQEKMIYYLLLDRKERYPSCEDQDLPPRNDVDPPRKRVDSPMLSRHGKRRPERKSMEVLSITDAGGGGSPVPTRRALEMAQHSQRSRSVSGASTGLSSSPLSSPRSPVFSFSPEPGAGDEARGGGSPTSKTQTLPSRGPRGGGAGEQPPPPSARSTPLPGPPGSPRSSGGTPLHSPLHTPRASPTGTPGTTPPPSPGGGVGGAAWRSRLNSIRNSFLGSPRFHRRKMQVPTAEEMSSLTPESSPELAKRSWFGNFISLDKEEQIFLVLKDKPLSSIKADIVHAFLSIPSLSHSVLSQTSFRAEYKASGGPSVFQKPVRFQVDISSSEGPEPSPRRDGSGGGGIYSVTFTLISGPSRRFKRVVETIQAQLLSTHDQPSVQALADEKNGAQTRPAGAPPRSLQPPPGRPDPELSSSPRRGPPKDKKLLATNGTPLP
Briefly: Selectivity interaction (KinomeScan (DiscoverX)) EUB0000618a BRSK1. To be noted: at 10 µM.

This is an account of results in ChEMBL document CHEMBL5465560, “Selectivity Literature for EUbOPEN Chemogenomic Library” (2024).

SRSF protein kinase 1, sequence (Q96SB4 whole entry): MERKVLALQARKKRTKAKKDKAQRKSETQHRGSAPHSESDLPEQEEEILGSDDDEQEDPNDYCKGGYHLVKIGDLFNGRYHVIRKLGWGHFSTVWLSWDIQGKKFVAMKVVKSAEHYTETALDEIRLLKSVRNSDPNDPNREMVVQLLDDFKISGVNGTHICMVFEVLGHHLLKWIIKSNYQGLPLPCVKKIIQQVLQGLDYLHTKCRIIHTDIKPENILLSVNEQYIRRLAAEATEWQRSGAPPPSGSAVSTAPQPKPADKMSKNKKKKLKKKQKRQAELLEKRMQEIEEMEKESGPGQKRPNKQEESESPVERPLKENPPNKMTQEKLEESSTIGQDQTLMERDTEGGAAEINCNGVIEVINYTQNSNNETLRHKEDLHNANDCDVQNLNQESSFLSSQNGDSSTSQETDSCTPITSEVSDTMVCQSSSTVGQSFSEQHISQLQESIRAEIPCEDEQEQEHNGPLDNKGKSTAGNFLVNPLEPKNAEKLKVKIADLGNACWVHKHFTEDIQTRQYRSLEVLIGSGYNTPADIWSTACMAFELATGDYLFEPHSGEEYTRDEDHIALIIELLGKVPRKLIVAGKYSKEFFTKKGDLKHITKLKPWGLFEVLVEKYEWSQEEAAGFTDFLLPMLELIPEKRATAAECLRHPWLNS
Calcium/calmodulin-dependent protein kinase type II subunit beta (Homo sapiens), sequence (Q13554 whole entry): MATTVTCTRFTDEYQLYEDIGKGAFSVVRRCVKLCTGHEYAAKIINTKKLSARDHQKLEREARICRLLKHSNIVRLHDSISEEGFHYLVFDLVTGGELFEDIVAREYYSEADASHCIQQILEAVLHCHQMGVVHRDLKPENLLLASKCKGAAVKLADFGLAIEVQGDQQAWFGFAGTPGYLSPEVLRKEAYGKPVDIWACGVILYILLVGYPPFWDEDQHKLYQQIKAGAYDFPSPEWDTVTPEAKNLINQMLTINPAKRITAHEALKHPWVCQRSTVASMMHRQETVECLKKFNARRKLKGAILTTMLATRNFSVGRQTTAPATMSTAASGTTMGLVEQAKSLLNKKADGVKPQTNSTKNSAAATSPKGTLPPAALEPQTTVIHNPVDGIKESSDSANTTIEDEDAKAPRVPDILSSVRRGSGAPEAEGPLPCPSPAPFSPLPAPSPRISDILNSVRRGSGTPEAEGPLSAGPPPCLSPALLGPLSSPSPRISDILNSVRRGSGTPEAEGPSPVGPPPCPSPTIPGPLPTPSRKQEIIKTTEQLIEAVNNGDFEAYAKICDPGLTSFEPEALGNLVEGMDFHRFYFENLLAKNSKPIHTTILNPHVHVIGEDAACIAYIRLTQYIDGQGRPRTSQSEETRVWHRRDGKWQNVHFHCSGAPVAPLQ
Mitogen-activated protein kinase 11 (Homo sapiens), sequence (Q15759 whole entry): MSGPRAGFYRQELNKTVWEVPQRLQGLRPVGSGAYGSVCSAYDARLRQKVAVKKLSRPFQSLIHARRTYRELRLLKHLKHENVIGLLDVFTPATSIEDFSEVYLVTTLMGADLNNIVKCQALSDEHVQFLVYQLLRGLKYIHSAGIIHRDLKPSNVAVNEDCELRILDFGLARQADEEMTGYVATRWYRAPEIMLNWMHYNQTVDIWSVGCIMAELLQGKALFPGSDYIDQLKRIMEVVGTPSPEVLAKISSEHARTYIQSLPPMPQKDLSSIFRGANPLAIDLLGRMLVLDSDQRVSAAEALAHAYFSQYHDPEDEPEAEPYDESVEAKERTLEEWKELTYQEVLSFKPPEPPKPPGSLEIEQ

As for `C=CC(=O)Nc1cccc(C(=O)Nc2ccc(Nc3cc(-c4[nH]c(SC)nc4C)ccn3)cc2)c1`, the % of control in test [1] (at 1 µM) turned out to be 86%; in test [1] (at 5 µM) it was 57%. Turning to `Nc1cnc(N2CCc3cc(S(=O)(=O)Nc4c(F)cc(Cl)cc4F)cc(N4CCCC4=O)c32)nc1` [TP-020n], the % of control in test [2] turned out to be 100%. The compound `CN(C)CCOc1ccc(-c2nc(-c3ccncc3)c(-c3ccc4c(c3)CC/C4=N\O)[nH]2)cc1` showed a % of control in test [3] of 100%. Take `Cc1cc(C)cc([C@@H]2c3cc(C)ccc3NC(=O)CN2C(=O)c2ccc(Br)s2)c1`: the values for the % of activity in test [4] (at 1 µM) and in test [4] (at 10 µM) were 96.7% and 91.3%, respectively. For `Cn1cc(-n2cnc3c(NCc4nc5cc(Cl)c(Cl)cc5[nH]4)nc(N4CCOCC4)nc32)cn1`, the % of inhibition in test [5] is -13.5%. As for `CC[C@@H]1[C@H](F)C(=O)N[C@@H]1COc1nccc2cc(C(N)=O)c(OC)cc12` [ZIMLOVISERTIB], on SRSF protein kinase 1, the % of inhibition was -7.7%. Consider `COc1cc(N(C)c2ccnc3ccc(C(F)(F)F)cc23)cc(OC)c1OC`, for which, in test [6], the % binding stood at 83%. On to `O[C@H]1CC[C@H](Nc2ncc3nc(Nc4c(F)cc(F)cc4F)n([C@H]4CCOC4)c3n2)CC1`, for which the % of control in test [7] is 86%.
